Assay results as given in the NIST ThermoML archive (doi:10.1016/j.jct.2011.02.018).

Experiment: xn = mol fraction of the nth substance listed
Conditions: 101 kPa, Liquid; for viscosity: Concentric cylinders viscometry; for mass density: Vibrating tube method

COC(C)(C)C [2-methoxy-2-methylpropane] + CCCCCCO
Conditions | mass density, 293.15 K [kg/m3] | mass density, 298.15 K [kg/m3] | mass density, 303.15 K [kg/m3] | mass density, 308.15 K [kg/m3] | viscosity, 293.15 K [mPa·s] | viscosity, 298.15 K [mPa·s] | viscosity, 303.15 K [mPa·s] | viscosity, 308.15 K [mPa·s]
x1 = 0.0103 | 818.26 | 814.71 | 811.1 | 807.46 | 5.223 | 4.46 | 3.832 | 3.31
x1 = 0.0204 | 817.68 | 814.12 | 810.49 | 806.85 | 5.039 | 4.314 | 3.714 | 3.214
x1 = 0.0304 | 817.11 | 813.53 | 809.9 | 806.24 | 4.87 | 4.175 | 3.6 | 3.12
x1 = 0.0408 | 816.51 | 812.92 | 809.27 | 805.6 | 4.696 | 4.036 | 3.486 | 3.026
x1 = 0.0495 | 816 | 812.4 | 808.75 | 805.07 | 4.562 | 3.925 | 3.395 | 2.951
x1 = 0.0625 | 815.23 | 811.62 | 807.96 | 804.26 | 4.361 | 3.761 | 3.259 | 2.839
x1 = 0.0705 | 814.74 | 811.12 | 807.44 | 803.74 | 4.252 | 3.67 | 3.185 | 2.779
x1 = 0.0799 | 814.17 | 810.54 | 806.85 | 803.14 | 4.113 | 3.555 | 3.09 | 2.699
x1 = 0.0912 | 813.49 | 809.83 | 806.14 | 802.42 | 3.959 | 3.433 | 2.991 | 2.621
x1 = 0.0994 | 813.01 | 809.36 | 805.66 | 801.92 | 3.852 | 3.343 | 2.913 | 2.549
x1 = 0.1508 | 809.87 | 806.15 | 802.39 | 798.59 | 3.253 | 2.842 | 2.493 | 2.198
x1 = 0.205 | 806.42 | 802.7 | 798.86 | 795 | 2.733 | 2.44 | 2.173 | 1.892
x1 = 0.2579 | 802.99 | 799.15 | 795.26 | 791.32 | 2.318 | 2.067 | 1.848 | 1.634
x1 = 0.3 | 800.17 | 796.26 | 792.3 | 788.3 | 2.047 | 1.828 | 1.636 | 1.468
x1 = 0.3574 | 796.2 | 792.23 | 788.18 | 784.11 | 1.724 | 1.56 | 1.392 | 1.257
x1 = 0.4012 | 793.09 | 789.05 | 784.94 | 780.8 | 1.53 | 1.368 | 1.239 | 1.122
x1 = 0.4501 | 789.54 | 785.43 | 781.24 | 777.03 | 1.324 | 1.197 | 1.09 | 0.9929
x1 = 0.5028 | 785.58 | 781.39 | 777.12 | 772.81 | 1.145 | 1.045 | 0.9538 | 0.8711
x1 = 0.5637 | 780.83 | 776.53 | 772.16 | 767.75 | 0.9727 | 0.8921 | 0.8183 | 0.7502
x1 = 0.598 | 778.11 | 773.75 | 769.31 | 764.84 | 0.8885 | 0.8156 | 0.7488 | 0.6862
x1 = 0.6508 | 773.76 | 769.32 | 764.78 | 760.21 | 0.7769 | 0.7149 | 0.6592 | 0.6063
x1 = 0.7 | 769.62 | 765.05 | 760.44 | 755.77 | 0.6805 | 0.6305 | 0.5829 | 0.5443
x1 = 0.7493 | 765.32 | 760.67 | 755.96 | 751.19 | 0.6088 | 0.5658 | 0.523 | 0.481
x1 = 0.7994 | 760.79 | 756.02 | 751.14 | 746.31 | 0.5397 | 0.5033 | 0.4676 | 0.4306
x1 = 0.8514 | 755.91 | 751.04 | 746.09 | 741.09 | 0.4782 | 0.4484 | 0.4172 | 0.389
x1 = 0.903 | 750.84 | 745.85 | 740.79 | 735.68 | 0.424 | 0.397 | 0.3679 | 0.3464
x1 = 0.9095 | 750.2 | 745.2 | 740.12 | 735 | 0.418 | 0.3923 | 0.3635 | 0.3436
x1 = 0.9204 | 749.1 | 744.07 | 738.99 | 733.83 | 0.4077 | 0.3825 | 0.3535 | 0.3351
x1 = 0.9294 | 748.16 | 743.14 | 738 | 732.83 | 0.3999 | 0.3756 | 0.3485 | 0.3282
x1 = 0.9397 | 747.1 | 742.04 | 736.89 | 731.69 | 0.3904 | 0.3661 | 0.3396 | 0.3202
x1 = 0.9495 | 746.08 | 741.01 | 735.83 | 730.61 | 0.382 | 0.3603 | 0.3326 | 0.3124
x1 = 0.9589 | 745.09 | 739.99 | 734.79 | 729.54 | 0.374 | 0.3542 | 0.3253 | 0.3083
x1 = 0.969 | 744.04 | 738.91 | 733.68 | 728.41 | 0.3661 | 0.3441 | 0.3206 | 0.3023
x1 = 0.9791 | 742.95 | 737.79 | 732.55 | 727.25 | 0.3582 | 0.337 | 0.3139 | 0.2969
x1 = 0.9899 | 741.78 | 736.6 | 731.33 | 726.01 | 0.3508 | 0.3303 | 0.3069 | 0.2898
